What was measured:
Type in all cases: biochemical
[1] = biological target: T1, SIRT1 (Homo sapiens, UniProt Q96EB6); assay: Fluorescence polarization assay of SIRT1 activity (p53-based peptide substrate); conditions: activation of SIRT1; peptide 1 for Compounds 1-18, peptide 2 for Compounds 19-164; read-out: ED50 FP
T1 sequence (Q96EB6 1-747): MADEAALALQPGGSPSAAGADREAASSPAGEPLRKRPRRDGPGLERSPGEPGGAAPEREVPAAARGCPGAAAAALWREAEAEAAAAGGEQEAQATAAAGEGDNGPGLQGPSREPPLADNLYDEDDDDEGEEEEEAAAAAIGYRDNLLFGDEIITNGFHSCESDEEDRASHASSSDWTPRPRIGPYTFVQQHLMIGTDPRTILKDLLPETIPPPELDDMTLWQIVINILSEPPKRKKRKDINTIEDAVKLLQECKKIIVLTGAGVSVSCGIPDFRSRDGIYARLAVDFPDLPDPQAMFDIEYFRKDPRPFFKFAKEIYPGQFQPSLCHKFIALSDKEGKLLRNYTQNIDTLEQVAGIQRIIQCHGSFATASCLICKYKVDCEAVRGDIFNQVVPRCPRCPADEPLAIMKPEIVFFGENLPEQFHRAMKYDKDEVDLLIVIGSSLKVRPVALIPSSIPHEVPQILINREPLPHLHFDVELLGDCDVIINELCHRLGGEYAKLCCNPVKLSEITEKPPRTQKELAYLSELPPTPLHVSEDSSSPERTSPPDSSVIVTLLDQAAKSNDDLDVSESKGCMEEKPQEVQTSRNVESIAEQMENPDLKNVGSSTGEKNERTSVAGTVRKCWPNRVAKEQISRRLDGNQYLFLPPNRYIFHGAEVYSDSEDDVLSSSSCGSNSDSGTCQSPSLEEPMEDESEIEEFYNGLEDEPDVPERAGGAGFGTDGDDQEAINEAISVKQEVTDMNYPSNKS
Method: A fluorescence polarization or mass spectrometry based assay was used to identify modulators of SIRT1 activity. The same assay may be used to identify modulators of any sirtuin protein. The fluorescence polarization assays utilizes one of two different peptides based on a fragment of p53, a known sirtuin deacetylation target. Compounds 1-18 were tested using a substrate containing peptide 1 having 20 amino acid residues as follows: Ac-EE-K(biotin)-[…](Ac)NleSTEG-K(M121)-EE-NH2 (SEQ ID NO: 1) wherein K(biotin) is a biotinolated lysine residue, K(Ac) is an acetylated lysine residue, Nle is norleucine and K(MR121) is a lysine residue modified by an MR121 fluorophore. This peptide is labeled with the fluorophore MR121 (excitation 635 nm/emission 680 nm) at the C-termini and biotin at the N-termini. The sequence of the peptide substrates are based on p53 with several modifications. In particular, all arginine and […] residues other than the acetylated lysine residues have replaced with serine so that the peptides are not susceptible to trypsin cleavage in the absence of deacetylation. In addition, the methionine residues naturally present in the sequences have been replaced with the norleucine because the methionine may be susceptible to oxidation during synthesis and purification. […] The peptide is labeled with the fluorophore 5TMR (excitation 540 nm/emission 580 nm) at the C-terminus. The sequence of the peptide substrate is also based on p53 with several modifications. In addition, the methionine residue naturally present in the sequence was replaced with the norleucine because the methionine may be susceptible to oxidation during synthesis and purification.
The peptide substrates were exposed to a sirtuin protein in the presence of NAD^+ to allow deacetylation of the substrate and render it sensitive to cleavage by trypsin. Trypsin was then added and the reaction was carried to completion (i.e., the deacetylated substrate is cleaved) releasing the MR121 or 5TMR fragment. Streptavidin is then added to the reaction where it can bind both the uncleaved substrate (i.e., any remaining acetylated substrate) and the non-fluorescent portion of the cleaved peptide substrate (i.e., the biotin containing fragment). The fluorescence polarization signal observed for the full length peptide substrates bound to streptavidin was higher than the fluorescence polarization signal observed for the released MR121 or 5TMR C-terminal fragment. In this way, the fluorescence polarization obtained is inversely proportional to the level of deacetylation (e.g., the signal is inversely proportional to the activity of the sirtuin protein). Results were read on a microplate fluorescence polarization reader (Molecular Devices Spectramax MD) with appropriate excitation and emission filters.
The fluorescence polarization assays using peptide 1 is conducted as follows: 0.5 μM peptide substrate and 150 μM βNAD^+ is incubated with 0.1 μg/mL of SIRT1 for 60 minutes at 37° C. in a reaction buffer (25 mM Tris-acetate pH8, 137 mM Na—Ac, 2.7 mM K—Ac, 1 mM Mg—Ac, 0.05% Tween-20, 0.1% Pluronic F127, 10 mM CaCl2, 5 mM DTT, 0.025% BSA, 0.15 mM Nicotinamide). Test compounds 1-18 were solubilized in DMSO and added to the reaction at 11 concentrations ranging from 0.7 μM to 100 μM.
Fluorescence polarization assays using peptide 2 is conducted as follows: 0.5 μM peptide substrate and 120 μM βNAD^+ were incubated with 3 nM SIRT1 for 20 minutes at 25° C. in a reaction buffer (25 mM Tris-acetate pH8, 137 mM Na—Ac, 2.7 mM K—Ac, 1 mM Mg—Ac, 0.05% Tween-20, 0.1% Pluronic F127, 10 mM CaCl2, 5 mM DTT, 0.025% BSA). Test compounds 19-56 were solubilized in DMSO and added to the reaction at 10 concentrations ranging from 300 μM to 0.15 μM in three-fold dilutions.
After the incubation with SIRT1, nicotinamide was added to the reaction to a final concentration of 3 mM to stop the deacetylation reaction and 0.5 μg/mL of trypsin was added to cleave the deacetylated substrate. […]

[2] = biological target: T1, SIRT1; assay: SIRT1 fluorescence polarization or mass spectrometry based assay (format not given); conditions: inhibition of SIRT1 (Table 5)
[3] = biological target: T1, SIRT1; assay: Mass spectrometry based assay of SIRT1 activity; design: key to FOLD ACTIVATION MS: A: Fold activation >250%; B: Fold Activation <250%; C: no fold activation; conditions: for EC50: activation of SIRT1, read-out: ED50 MS
Method: The mass spectrometry based assay utilizes a peptide having 20 amino acid residues as follows: […] The sequence of the peptide substrate is based on p53 with several modifications. […] Test compounds may be added to the reaction as described above. […] After the 25 minute incubation with SIRT1, 10 μL of 10% formic acid is added to stop the reaction. Reactions are sealed and frozen for later mass spec analysis. Determination of the mass of the substrate peptide allows for precise determination of the degree of acetylation (i.e. starting material) as compared to deacetylated peptide (product). […] This timepoint is the same as that used for test compounds and, within the linear range, the endpoint represents a change in velocity. For each of the above assays, SIRT1 protein was expressed and purified as follows. The SirT1 gene was cloned into a T7-promoter containing vector and transformed into BL21(DE3). The protein was expressed by induction with 1 mM IPTG as an N-terminal His-tag fusion protein at 18° C. overnight and harvested at 30,000×g. […] The protein was purified over a Ni-NTA column (Amersham) and fractions containing pure protein were pooled, concentrated and run over a sizing column (Sephadex S200 26/60 global). The peak containing soluble protein was collected and run on an Ion-exchange column (MonoQ). […] This protein was concentrated and dialyzed against dialysis buffer (20 mM Tris-HCl, 2 mM TCEP) overnight. The protein was aliquoted and frozen at −80° C. until further use.

| EC50 [1] | IC50 [2] | FOLD ACTIVATION MS [3] | EC50 [3] | SMILES |
| --- | --- | --- | --- | --- |
| < 50 µM |  |  |  | CC(=O)Oc1cc(C(=O)Nc2ccccc2C(=O)O)cc(C(=O)Nc2ccccc2C(=O)O)c1 [Compound 1] |
| 51 to 100 µM |  |  |  | COc1cc(NC(=O)c2cccc(Br)c2)c(C(=O)O)cc1OC [Compound 5] |
| > 150 µM |  |  |  | COc1ccccc1C(=O)Nc1cccc(NC(=O)c2ccco2)c1 [Compound 6] |
| < 50 µM |  |  |  | COc1ccccc1C(=O)Nc1cccc(-c2nc3ncccc3o2)c1 [Compound 7] |
| > 150 µM |  |  |  | COc1cc(C(=O)Nc2cc(Cl)ccc2C(=O)O)ccc1OC(C)=O [Compound 10] |
| > 150 µM |  | C | > 150 µM | O=C(Nc1cccc(-c2nc3ncccc3o2)c1)c1ccc(N2CCCCC2)cc1 [Compound 39] |
| > 150 µM |  | C | > 150 µM | COc1ccc(C(=O)Nc2cccc(-c3nc4ncccc4o3)c2)c(C(F)(F)F)c1 [Compound 40] |
| > 150 µM |  | C | > 150 µM | COc1ccc(C(=O)Nc2cccc(-c3nc4ncccc4o3)c2)cc1C(F)(F)F [Compound 41] |
|  | > 150 µM |  |  | N#Cc1cccc(C(=O)Nc2cccc(-c3nc4ncccc4o3)c2)c1 [Compound 44] |
| > 150 µM |  | C | > 150 µM | COc1cc(OC)c(C(=O)Nc2cccc(-c3nc4ncccc4o3)c2)c(OC)c1 [Compound 48] |
| > 150 µM |  | B (Fold Activation <250%) | < 50 µM | COc1cccc(C(=O)Nc2cccc(-c3nc4ncccc4o3)c2)c1C [Compound 49] |
| < 50 µM |  | B (Fold Activation <250%) | < 50 µM | COc1ccc(C(=O)Nc2cccc(-c3nc4ncccc4o3)c2)cc1OC [Compound 52] |
| > 150 µM |  | C | > 150 µM | COc1ccc(C(=O)Nc2cccc(-c3nc4ncccc4o3)c2)c(OC)c1OC [Compound 53] |
| < 50 µM |  | B (Fold Activation <250%) | < 50 µM | COc1ccc(C(=O)Nc2cccc(-c3nc4ncccc4o3)c2)c(OC)c1 [Compound 55] |
| > 150 µM |  | B (Fold Activation <250%) | < 50 µM | O=C(Nc1cccc(-c2nc3ncccc3o2)c1)c1ccccc1 [Compound 56] |

Further lines, the compound ahead of its results:

| SMILES | EC50 [1] | IC50 [2] | FOLD ACTIVATION MS [3] | EC50 [3] |
| --- | --- | --- | --- | --- |
| O=C(Nc1cc(NC(=O)c2ccccc2)c(C(=O)O)cc1C(=O)O)c1ccccc1 [Compound 2] | > 150 µM |  |  |  |
| O=C(Nc1ccccc1C(=O)O)c1cccc(C(=O)Nc2ccccc2C(=O)O)c1 [Compound 3] | 51 to 100 µM |  |  |  |
| CCOc1cccc(C(=O)Nc2cc(OC)c(OC)cc2C(=O)O)c1 [Compound 8] | 51 to 100 µM |  |  |  |
| CC1COCC(C)N1c1ccc(C(=O)NCc2cccc(CN)c2)cc1NC(=O)c1ccc2ccccc2c1 (stereo not shown) [Compound 9] | 101 to 150 µM |  |  |  |
| O=C(O)c1ccc(NC(=O)c2cccc(NC(=O)c3cccs3)c2)cc1 [Compound 13] |  | < 50 µM |  |  |
| CC(=O)Oc1ccc(C(=O)Nc2ccc(C(=O)O)cc2NC(=O)c2ccc(OC(C)=O)cc2)cc1 [Compound 14] |  | 51 to 100 µM |  |  |
| O=C(Nc1cccc(-c2nc3ncccc3o2)c1)c1ccc(N2CCOCC2)cc1 [Compound 38] | > 150 µM |  | C | > 150 µM |
| CN(C)c1cccc(C(=O)Nc2cccc(-c3nc4ncccc4o3)c2)c1 [Compound 42] | < 50 µM |  | B (Fold Activation <250%) | < 50 µM |
| CN(C)c1ccc(C(=O)Nc2cccc(-c3nc4ncccc4o3)c2)cc1 [Compound 43] | < 50 µM |  | B (Fold Activation <250%) | < 50 µM |
| N#Cc1ccc(C(=O)Nc2cccc(-c3nc4ncccc4o3)c2)cc1 [Compound 45] | > 150 µM |  | C | > 150 µM |
| COc1cccc(OC)c1C(=O)Nc1cccc(-c2nc3ncccc3o2)c1 [Compound 46] | > 150 µM |  | C | > 150 µM |
| O=C(Nc1cccc(-c2nc3ncccc3o2)c1)c1ccc(N2CCCC2)cc1 [Compound 47] |  | 51 to 100 µM |  |  |
| COc1cc(C)ccc1C(=O)Nc1cccc(-c2nc3ncccc3o2)c1 [Compound 51] | < 50 µM |  | B (Fold Activation <250%) | < 50 µM |
